Columns and labels:
Phakopsora pachyrhizi = experiment: Test A: test suspension sprayed on soybean seedlings one day before inoculation with Phakopsora pachyrhizi spores (Asian soybean rust), visual disease rating; format: in vivo; conditions: 100 = 100% disease control, 0 = no control
Text: General protocol for preparing test suspensions for Tests A-C: the test compounds were first dissolved in acetone in an amount equal to 3% of the final volume and then suspended at the desired concentration (in ppm) in acetone and purified water (50/50 mix by volume) containing 250 ppm of the surfactant PEG400 (polyhydric alcohol esters). The resulting test suspensions were then used in Tests A-C.
The test solution was sprayed to the point of run-off on soybean seedlings. The following day the seedlings were inoculated with a spore suspension of Phakopsora pachyrhizi (the causal agent of Asian soybean rust) and incubated in a saturated atmosphere at 22° C. for 24 h, and then moved to a growth chamber at 22° C. for 8 days, after which time visual disease ratings were made.
Results for Tests A-C are given in Table A. In the Table, a rating of 100 indicates 100% disease control and a rating of 0 indicates no disease control (relative to the controls). An asterisk “*” or a double asterisk “**” next to the rating value indicates a 50 ppm or 10 ppm test suspension was used, respectively. A dash (-) indicates the compound was not tested.

[1] = test system: Puccinia recondita f. sp. tritici; experiment: Test B: test suspension sprayed on wheat seedlings one day before inoculation with Puccinia recondita f. sp. tritici spores (wheat leaf rust), disease rating; format: in vivo; conditions: 100 = 100% disease control, 0 = no control
Text: General protocol for preparing test suspensions for Tests A-C: the test compounds were first dissolved in acetone in an amount equal to 3% of the final volume and then suspended at the desired concentration (in ppm) in acetone and purified water (50/50 mix by volume) containing 250 ppm of the surfactant PEG400 (polyhydric alcohol esters). The resulting test suspensions were then used in Tests A-C. The test solution was sprayed to the point of run-off on wheat seedlings. The following day the seedlings were inoculated with a spore suspension of Puccinia recondita f. sp. tritici (the causal agent of wheat leaf rust) and incubated in a saturated atmosphere at 20° C. for 24 h, and then moved to a growth chamber at 20° C. for 6 days, after which time disease ratings were made. Results for Tests A-C are given in Table A. In the Table, a rating of 100 indicates 100% disease control and a rating of 0 indicates no disease control (relative to the controls). An asterisk “*” or a double asterisk “**” next to the rating value indicates a 50 ppm or 10 ppm test suspension was used, respectively. A dash (-) indicates the compound was not tested.

| SMILES | Test A rating (disease control) (Phakopsora pachyrhizi; 10 ppm test suspension) | Test B rating (disease control) ([1]; 10 ppm test suspension) | other results |
| --- | --- | --- | --- |
| CCOC(=O)C1=NOC(Cc2ccc(OC=C(OCC)C(F)(F)F)cc2)C1 (mixture of isomers) [compound 287] |  |  | Test A rating (disease control) (Phakopsora pachyrhizi; 50 ppm test suspension): 77%; Test B rating (disease control) ([1]; 50 ppm test suspension): 0% |
| CCOC(=COc1ccc(CC2CC(C(=O)N(C)C)=NO2)cc1)C(F)(F)F (mixture of isomers) [compound 288] |  |  | Test A rating (disease control) (Phakopsora pachyrhizi; 50 ppm test suspension): 96%; Test B rating (disease control) ([1]; 50 ppm test suspension): 0% |
| CCOC(=COc1ccc(CN2CCC(C(=O)OC)C2)cc1)C(F)(F)F (mixture of isomers) [compound 310] | 100% | 0% |  |
| CCOC(=O)c1cnn(Cc2ccc(OCC(O)(O)C(F)(F)F)cc2)c1 [Compound 1, ethyl 1-[[4-(3,3,3-trifluoro-2,2-dihydroxypropoxy)phenyl]methyl]-1H-pyrazole-4-carboxylate] |  |  | pest or weed control at 250 ppm (Phakopsora pachyrhizi; Phakopsora pachyrhizi, 250 ppm test suspension): 100%; pest or weed control at 250 ppm ([1]; 250 ppm test suspension): 91% |
| OC(O)(COc1ccc(OCC(O)(O)C(F)(F)F)cc1)C(F)(F)F [Compound 2] | 77% | 32% |  |
| CCOC(=O)c1cnn(Cc2ccc(OC(C)C(O)(O)C(F)(F)F)cc2)c1 (stereo not drawn) [Compound 5] | 0% | 0% |  |
| CCOC(=O)c1cnn(Cc2ccc(OCC(O)(NO)C(F)(F)F)cc2)c1 (stereo not drawn) [Compound 10] | 100% | 86% |  |
| CCOC(=O)c1cnn(Cc2ccc(OCC3(C(F)(F)F)OCC(C)(C)O3)cc2)c1 (stereo not drawn) [Compound 12, ethyl 1-[[4-[[4,4-dimethyl-2-(trifluoromethyl)-1,3-dioxolan-2-yl]methoxy]-phenyl]methyl]-1H-pyrazole-4-carboxylate] |  |  | pest or weed control at 10 ppm (Phakopsora pachyrhizi; Phakopsora pachyrhizi, 10 ppm test suspension): 13%; pest or weed control at 10 ppm ([1]; 10 ppm test suspension): 0% |
| CCOC(=O)c1cnn(Cc2ccc(OCC3(C(F)(F)F)OC(=O)CS3)cc2)c1 (stereo not drawn) [Compound 20] | 98% | 86% |  |
| CCOC(=O)c1cnn(Cc2ccc(OCC3(C(F)(F)F)NCCO3)cc2)c1 (stereo not drawn) [Compound 21] | 84% | 23% |  |
| CCS(=O)(=O)Cc1ccc(OCC(O)(O)C(F)(F)F)cc1 [Compound 29] | 84% | 28% |  |
| OC(O)(CCc1ccc(Cn2ccc3ccccc32)cc1)C(F)(F)F [Compound 30] | 0% | 0% |  |
| CS(=O)(=O)c1ccc(OCC(O)(O)C(F)(F)F)cc1 [Compound 31] | 44% | 93% |  |
| COC(=O)NN=Cc1ccc(OCC(O)(O)C(F)(F)F)cc1 [Compound 33] | 96% | 86% |  |
| CN(C)S(=O)(=O)c1ccc(OCC(O)(O)C(F)(F)F)cc1 [Compound 34] | 0% | 80% |  |
| CCOC(=O)c1cnn(C(C)c2ccc(OCC(O)(O)C(F)(F)F)cc2)c1 (stereo not drawn) [Compound 35] | 99% | 32% |  |
| O=C(NCC1CC1)c1cnn(Cc2ccc(OCC(O)(O)C(F)(F)F)cc2)c1 [Compound 36] | 70% | 0% |  |
| COC(=O)c1cnn(Cc2ccc(OCC(O)(O)C(F)(F)F)cc2)c1 [Compound 37] | 99% | 86% |  |
| C=CC(F)(F)OC(=O)c1cnn(Cc2ccc(OCC(O)(O)C(F)(F)F)cc2)c1 [Compound 38] | 97% | 89% |  |
| CC(C)OC(=O)c1cnn(Cc2ccc(OCC(O)(O)C(F)(F)F)cc2)c1 [Compound 39] | 91% | 79% |  |
| C=C(C)COC(=O)c1cnn(Cc2ccc(OCC(O)(O)C(F)(F)F)cc2)c1 [Compound 40] | 91% | 68% |  |
| CN(C)C(=O)C1=NOC(c2ccc(OCC(O)(O)C(F)(F)F)cc2)C1 (stereo not drawn) [Compound 41] | 92% | 23% |  |
| CCCOC(=O)c1cnn(Cc2ccc(OCC(O)(O)C(F)(F)F)cc2)c1 [Compound 42] | 99% | 85% |  |
| C=CCOC(=O)c1cnn(Cc2ccc(OCC(O)(O)C(F)(F)F)cc2)c1 [Compound 43] | 96% | 60% |  |

| SMILES | Test A rating (disease control) (Phakopsora pachyrhizi; 10 ppm test suspension) | Test B rating (disease control) ([1]; 10 ppm test suspension) | other results |
| --- | --- | --- | --- |
| C#CCOC(=O)c1cnn(Cc2ccc(OCC(O)(O)C(F)(F)F)cc2)c1 [Compound 44] | 97% | 85% |  |
| O=C(OCC(F)(F)F)c1cnn(Cc2ccc(OCC(O)(O)C(F)(F)F)cc2)c1 [Compound 45] | 87% | 85% |  |
| O=C(OCC(F)(F)C(F)(F)F)c1cnn(Cc2ccc(OCC(O)(O)C(F)(F)F)cc2)c1 [Compound 46] | 64% | 85% |  |
| O=C(OCc1ccccc1)c1cnn(Cc2ccc(OCC(O)(O)C(F)(F)F)cc2)c1 [Compound 47] |  |  | Test A rating (disease control) (Phakopsora pachyrhizi; 50 ppm test suspension): 100%; Test B rating (disease control) ([1]; 50 ppm test suspension): 95% |
| CCCCCCOC(=O)c1cnn(Cc2ccc(OCC(O)(O)C(F)(F)F)cc2)c1 [Compound 48] |  |  | Test A rating (disease control) (Phakopsora pachyrhizi; 50 ppm test suspension): 100%; Test B rating (disease control) ([1]; 50 ppm test suspension): 91% |
| O=C(OCc1ccc(Cl)c(Cl)c1)c1cnn(Cc2ccc(OCC(O)(O)C(F)(F)F)cc2)c1 [Compound 49] | 0% | 86% |  |
| O=C(OCc1ccc(F)c(F)c1)c1cnn(Cc2ccc(OCC(O)(O)C(F)(F)F)cc2)c1 [Compound 50] | 54% | 91% |  |
| CCOC(=O)c1cnn(Cc2ccc(C(O)CC(O)(O)C(F)(F)F)cc2)c1 (stereo not drawn) [Compound 51] | 0% | 0% |  |
| CCOC(=O)c1cnn(Cc2ccc(OCC3(C(F)(F)F)OCCCO3)cc2)c1 [Compound 52] | 99% | 0% |  |
| CCOC(=O)c1cnn(Cc2ccc(CCC(O)(O)C(F)(F)F)cc2)c1 [Compound 66] |  |  | Test A rating (disease control) (Phakopsora pachyrhizi; 50 ppm test suspension): 92%; Test B rating (disease control) ([1]; 50 ppm test suspension): 89% |
| O=C(NCC(F)(F)F)c1csc(Cc2ccc(OCC(O)(O)C(F)(F)F)cc2)n1 [Compound 68] | 100% | 95% |  |
| O=C(NCC1CC1)c1csc(Cc2ccc(OCC(O)(O)C(F)(F)F)cc2)n1 [Compound 69] | 98% | 96% |  |
| O=C(NCC(F)(F)F)c1csc(Cc2ccc(OCC3(C(F)(F)F)OCCO3)cc2)n1 [Compound 70] |  |  | Test A rating (disease control) (Phakopsora pachyrhizi; 250 ppm test suspension): 100%; Test B rating (disease control) ([1]; 250 ppm test suspension): 100% |
| CC(=O)c1ccc(OCC(O)(O)C(F)(F)F)cc1 [Compound 80] |  |  | Test A rating (disease control) (Phakopsora pachyrhizi; 50 ppm test suspension): 99%; Test B rating (disease control) ([1]; 50 ppm test suspension): 100% |
| CCO/C(=C\Oc1ccc(Cn2ncnc2C#N)cc1)C(F)(F)F [Compound 81] | 0% | 0% |  |
| CCO/C(=C\Oc1ccc(Cn2cnc(C#N)n2)cc1)C(F)(F)F [Compound 82] | 97% | 0% |  |
| CCOC(=O)C=CCOc1ccc(OCC(O)(O)C(F)(F)F)cc1 [Compound 97] |  |  | Test A rating (disease control) (Phakopsora pachyrhizi; 50 ppm test suspension): 94%; Test B rating (disease control) ([1]; 50 ppm test suspension): 0% |
| CCO/C(=C\Oc1ccc(Cn2ncnc2C(=O)OC)cc1)C(F)(F)F [Compound 122] | 0% | 0% |  |
| CCO/C(=C\Oc1ccc(Cn2cnc(C(=O)OC)n2)cc1)C(F)(F)F [Compound 123] | 98% | 0% |  |
| CCOC(=O)c1cnn(CCc2ccc(OCC(O)(O)C(F)(F)F)cc2)c1 [Compound 131] |  |  | Test A rating (disease control) (Phakopsora pachyrhizi; 50 ppm test suspension): 99%; Test B rating (disease control) ([1]; 50 ppm test suspension): 86% |
| O=C(c1csc(Cc2ccc(OCC(O)(O)C(F)(F)F)cc2)n1)N1CCC(F)(F)C1 [Compound 135] | 86% | 61% |  |
| CCOC(=O)c1csc(Cc2ccc(OCC(O)(O)C(F)(F)F)cc2)n1 [Compound 136] | 98% | 83% |  |
| CCOC(=O)c1csc(Cc2ccc(OCC3(C(F)(F)F)OCCO3)cc2)n1 [Compound 137] | 79% | 0% |  |
| N#Cc1ccc(OCC(O)(O)C(F)(F)F)cc1 [Compound 142] | 92% | 100% |  |
